Measured values from patent publication US9050341B2, “Methods of treating drug resistant and other tumors by administering 6,7-dialkoxy quinazoline derivatives” (NATCO PHARMA LIMITED, priority 2009, dated 2015).

Assays:
Assay in all cases: KinomeScan kinase profiling
Format in all cases: binding
DRAK2 = molecular target: T1, DRAK2 (Homo sapiens, UniProt O94768)
T1 construct: purchased Ambit Biosciences Corp (KinomeScan); host or cells: T7 phage in E. coli host derived from BL21
How it was run: (§1)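 Kinases were expressed as T7 phage fusions in a BL21-derived E. coli host and the cleared lysates were used. Ligand beads were blocked with biotin and buffer (1% BSA, 0.05% Tween 20, 1 mM DTT). Compounds came from 40× DMSO stocks, and phage in the eluates was titred by qPCR.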

PDGFRB = molecular target: T2, PDGFRB (Homo sapiens, UniProt P09619)
T2 construct: host or cells: E. coli host derived from the BL21 strain, infected with T7 phage
How it was run: as §1

CHEK2 = molecular target: T3, CHEK2 (Homo sapiens, UniProt O96017)
T3 construct: host or cells: T7 phage in E. coli (BL21-derived)
How it was run: as §1

LCK = molecular target: T4, LCK (Homo sapiens, UniProt P06239)
T4 construct: host or cells: T7 phage in E. coli host derived from BL21
How it was run: as §1

YANK3 = molecular target: T5, YANK3 (Homo sapiens, UniProt Q86UX6)
T5 construct: purchased Ambit Biosciences Corp (KinomeScan); host or cells: E. coli host derived from the BL21 strain (T7 phage lysate)
How it was run: as §1

EPHA7 = molecular target: T6, EPHA7 (Homo sapiens, UniProt Q15375)
T6 construct: host or cells: E. coli host derived from BL21, T7 phage lysate
How it was run: as §1

ERK1 = molecular target: T7, ERK1 (Homo sapiens, UniProt P27361)
T7 construct: host or cells: E. coli host derived from BL21, T7 phage lysate
How it was run: as §1

CAMK1D = molecular target: T8, CAMK1D (Homo sapiens, UniProt Q8IU85)
T8 construct: purchased Ambit Biosciences Corp (KinomeScan); host or cells: E. coli host derived from the BL21 strain, T7 phage
How it was run: as §1

BRAF = molecular target: T9, BRAF (Homo sapiens, UniProt P15056)
T9 construct: purchased Ambit Biosciences Corp (KinomeScan); host or cells: E. coli host derived from the BL21 strain, T7 phage
How it was run: as §1

TIE1 = molecular target: T10, TIE1 (Homo sapiens, UniProt P35590)
T10 construct: host or cells: E. coli host derived from the BL21 strain, T7 phage lysate
How it was run: as §1

TTK = molecular target: T11, TTK (Homo sapiens, UniProt P33981)
T11 construct: purchased Ambit Biosciences Corp (KinomeScan); host or cells: E. coli host derived from the BL21 strain (T7 phage lysate)
How it was run: as §1

TRKB = molecular target: T12, TRKB (Homo sapiens, UniProt Q16620)
T12 construct: purchased Ambit Biosciences Corp (KinomeScan); host or cells: E. coli host derived from the BL21 strain (T7 phage lysate)
How it was run: as §1

SgK110 = molecular target: T13, SgK110 (Homo sapiens, UniProt P0C264)
T13 construct: host or cells: E. coli host derived from the BL21 strain, T7 phage lysate
How it was run: as §1

ITK = molecular target: T14, ITK (Homo sapiens, UniProt Q08881)
T14 construct: host or cells: T7 phage in E. coli host derived from BL21
How it was run: as §1

MYO3B = molecular target: T15, MYO3B (Homo sapiens, UniProt Q8WXR4)
T15 construct: host or cells: T7 phage in E. coli host derived from BL21
How it was run: as §1

CSK = molecular target: T16, CSK (Homo sapiens, UniProt P41240)
T16 construct: host or cells: T7 phage in E. coli (BL21-derived)
How it was run: as §1

[1] = molecular target: T17, JAK1 (JH1domain-catalytic) (Homo sapiens, UniProt P23458)
T17 construct: JAK1 (JH1domain-catalytic); host or cells: T7 phage in E. coli host derived from BL21
How it was run: as §1

RET (V804L) = molecular target: T18, RET (V804L) (Homo sapiens, UniProt P07949, V804L)
T18 construct: host or cells: E. coli host derived from BL21, T7 phage lysate
How it was run: as §1

[2] = molecular target: T19, TYK2 (JH1domain-catalytic) (Homo sapiens, UniProt P29597)
T19 construct: TYK2 (JH1domain-catalytic); purchased Ambit Biosciences Corp (KinomeScan); host or cells: E. coli host derived from the BL21 strain (T7 phage lysate)
How it was run: as §1

MAP4K2 = molecular target: T20, MAP4K2 (Homo sapiens, UniProt Q12851)
T20 construct: host or cells: E. coli derived from BL21, infected with T7 phage
How it was run: as §1

TESK1 = molecular target: T21, TESK1 (Homo sapiens, UniProt Q15569)
T21 construct: host or cells: E. coli host derived from the BL21 strain, T7 phage lysate
How it was run: as §1

SIK2 = molecular target: T22, SIK2 (Homo sapiens, UniProt Q9H0K1)
T22 construct: host or cells: E. coli host derived from the BL21 strain, T7 phage lysate
How it was run: as §1

MAP3K3 = molecular target: T23, MAP3K3 (Homo sapiens, UniProt Q99759)
T23 construct: host or cells: E. coli derived from BL21, infected with T7 phage
How it was run: as §1

T4 sequence (P06239 whole entry): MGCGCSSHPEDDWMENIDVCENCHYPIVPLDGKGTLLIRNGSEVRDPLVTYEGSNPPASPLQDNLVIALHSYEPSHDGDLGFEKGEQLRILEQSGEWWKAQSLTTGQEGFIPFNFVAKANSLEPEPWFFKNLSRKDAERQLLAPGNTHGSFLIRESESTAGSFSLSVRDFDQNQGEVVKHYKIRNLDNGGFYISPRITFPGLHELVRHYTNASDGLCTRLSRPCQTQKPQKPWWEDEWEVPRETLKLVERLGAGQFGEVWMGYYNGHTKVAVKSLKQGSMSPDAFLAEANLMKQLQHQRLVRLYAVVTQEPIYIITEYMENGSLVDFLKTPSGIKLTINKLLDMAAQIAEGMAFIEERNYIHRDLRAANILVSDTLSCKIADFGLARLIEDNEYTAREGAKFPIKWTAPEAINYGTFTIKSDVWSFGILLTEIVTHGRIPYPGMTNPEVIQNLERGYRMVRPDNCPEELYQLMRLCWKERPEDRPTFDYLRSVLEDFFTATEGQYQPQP
T18 sequence (P07949 29-1114 V804L): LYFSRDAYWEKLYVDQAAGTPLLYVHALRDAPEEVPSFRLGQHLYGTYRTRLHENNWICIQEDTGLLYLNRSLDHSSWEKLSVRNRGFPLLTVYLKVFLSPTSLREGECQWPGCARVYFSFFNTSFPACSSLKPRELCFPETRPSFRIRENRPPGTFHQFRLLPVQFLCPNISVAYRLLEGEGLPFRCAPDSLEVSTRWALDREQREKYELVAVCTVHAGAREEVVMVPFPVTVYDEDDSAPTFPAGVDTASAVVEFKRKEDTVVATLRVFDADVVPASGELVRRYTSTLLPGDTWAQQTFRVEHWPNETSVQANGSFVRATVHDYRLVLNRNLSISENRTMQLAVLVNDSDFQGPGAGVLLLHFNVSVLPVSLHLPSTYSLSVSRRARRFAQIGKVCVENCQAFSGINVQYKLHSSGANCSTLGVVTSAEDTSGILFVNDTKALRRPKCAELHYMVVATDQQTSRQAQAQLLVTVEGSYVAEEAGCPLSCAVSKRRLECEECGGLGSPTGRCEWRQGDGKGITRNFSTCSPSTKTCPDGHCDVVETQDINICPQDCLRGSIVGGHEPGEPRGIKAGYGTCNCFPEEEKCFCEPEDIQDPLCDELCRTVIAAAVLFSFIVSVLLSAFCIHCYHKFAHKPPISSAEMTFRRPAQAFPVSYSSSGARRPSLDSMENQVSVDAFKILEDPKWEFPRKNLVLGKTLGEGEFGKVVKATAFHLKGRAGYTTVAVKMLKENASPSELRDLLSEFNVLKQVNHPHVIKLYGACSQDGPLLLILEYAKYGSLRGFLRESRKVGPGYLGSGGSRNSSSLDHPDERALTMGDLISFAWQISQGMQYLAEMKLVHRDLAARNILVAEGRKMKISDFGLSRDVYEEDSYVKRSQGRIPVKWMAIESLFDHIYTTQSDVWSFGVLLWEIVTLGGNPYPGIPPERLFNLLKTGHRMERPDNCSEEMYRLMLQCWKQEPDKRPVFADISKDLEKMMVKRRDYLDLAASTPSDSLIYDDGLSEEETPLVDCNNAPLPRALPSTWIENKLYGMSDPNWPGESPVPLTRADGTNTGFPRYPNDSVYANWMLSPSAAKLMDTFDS
T5 sequence (Q86UX6 whole entry): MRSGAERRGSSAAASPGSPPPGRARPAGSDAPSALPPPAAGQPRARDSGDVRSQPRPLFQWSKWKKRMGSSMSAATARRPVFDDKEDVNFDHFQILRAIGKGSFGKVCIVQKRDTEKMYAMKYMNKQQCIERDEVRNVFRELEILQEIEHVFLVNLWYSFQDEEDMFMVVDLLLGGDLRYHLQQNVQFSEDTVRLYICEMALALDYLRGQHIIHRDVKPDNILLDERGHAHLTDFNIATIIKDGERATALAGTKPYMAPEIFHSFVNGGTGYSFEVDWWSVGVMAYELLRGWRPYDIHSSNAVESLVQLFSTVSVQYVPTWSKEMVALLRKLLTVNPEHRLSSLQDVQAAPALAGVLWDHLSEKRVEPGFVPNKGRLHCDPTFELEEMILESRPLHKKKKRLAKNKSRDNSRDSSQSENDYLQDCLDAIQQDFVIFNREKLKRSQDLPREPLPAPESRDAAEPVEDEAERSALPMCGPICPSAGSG
T15 sequence (Q8WXR4 whole entry): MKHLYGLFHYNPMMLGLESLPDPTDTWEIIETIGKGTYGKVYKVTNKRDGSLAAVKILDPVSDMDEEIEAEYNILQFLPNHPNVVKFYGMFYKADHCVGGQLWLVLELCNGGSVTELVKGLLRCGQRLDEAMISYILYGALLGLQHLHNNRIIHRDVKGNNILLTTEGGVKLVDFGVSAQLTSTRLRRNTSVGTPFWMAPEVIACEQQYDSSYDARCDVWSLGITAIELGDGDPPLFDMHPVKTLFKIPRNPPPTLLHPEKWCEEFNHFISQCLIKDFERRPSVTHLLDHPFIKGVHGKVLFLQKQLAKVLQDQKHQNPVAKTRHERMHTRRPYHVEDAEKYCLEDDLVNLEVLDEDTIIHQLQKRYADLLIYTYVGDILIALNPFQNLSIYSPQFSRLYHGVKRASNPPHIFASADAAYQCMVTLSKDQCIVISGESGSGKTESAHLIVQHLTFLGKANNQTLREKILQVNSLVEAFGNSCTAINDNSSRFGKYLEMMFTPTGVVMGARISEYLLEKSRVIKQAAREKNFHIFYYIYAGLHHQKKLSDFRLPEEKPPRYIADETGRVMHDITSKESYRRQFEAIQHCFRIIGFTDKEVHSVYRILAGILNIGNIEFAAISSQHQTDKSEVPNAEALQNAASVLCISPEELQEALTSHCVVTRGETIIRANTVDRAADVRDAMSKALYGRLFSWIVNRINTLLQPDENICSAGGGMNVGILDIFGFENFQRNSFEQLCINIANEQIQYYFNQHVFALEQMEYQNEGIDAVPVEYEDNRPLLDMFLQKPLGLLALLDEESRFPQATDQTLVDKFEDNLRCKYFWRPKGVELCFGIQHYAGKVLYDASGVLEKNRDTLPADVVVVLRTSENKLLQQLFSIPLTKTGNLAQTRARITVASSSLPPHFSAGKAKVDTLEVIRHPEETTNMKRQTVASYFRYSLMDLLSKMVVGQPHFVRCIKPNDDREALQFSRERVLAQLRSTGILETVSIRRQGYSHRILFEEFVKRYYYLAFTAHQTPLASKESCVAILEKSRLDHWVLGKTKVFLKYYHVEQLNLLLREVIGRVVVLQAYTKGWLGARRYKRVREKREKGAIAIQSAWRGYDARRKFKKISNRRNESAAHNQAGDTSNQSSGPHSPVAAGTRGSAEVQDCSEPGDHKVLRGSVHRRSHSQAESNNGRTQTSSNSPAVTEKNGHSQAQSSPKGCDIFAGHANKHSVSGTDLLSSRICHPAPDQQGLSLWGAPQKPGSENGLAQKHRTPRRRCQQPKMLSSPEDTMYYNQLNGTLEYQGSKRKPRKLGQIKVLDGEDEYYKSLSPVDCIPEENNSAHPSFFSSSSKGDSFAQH
T14 sequence (Q08881 whole entry): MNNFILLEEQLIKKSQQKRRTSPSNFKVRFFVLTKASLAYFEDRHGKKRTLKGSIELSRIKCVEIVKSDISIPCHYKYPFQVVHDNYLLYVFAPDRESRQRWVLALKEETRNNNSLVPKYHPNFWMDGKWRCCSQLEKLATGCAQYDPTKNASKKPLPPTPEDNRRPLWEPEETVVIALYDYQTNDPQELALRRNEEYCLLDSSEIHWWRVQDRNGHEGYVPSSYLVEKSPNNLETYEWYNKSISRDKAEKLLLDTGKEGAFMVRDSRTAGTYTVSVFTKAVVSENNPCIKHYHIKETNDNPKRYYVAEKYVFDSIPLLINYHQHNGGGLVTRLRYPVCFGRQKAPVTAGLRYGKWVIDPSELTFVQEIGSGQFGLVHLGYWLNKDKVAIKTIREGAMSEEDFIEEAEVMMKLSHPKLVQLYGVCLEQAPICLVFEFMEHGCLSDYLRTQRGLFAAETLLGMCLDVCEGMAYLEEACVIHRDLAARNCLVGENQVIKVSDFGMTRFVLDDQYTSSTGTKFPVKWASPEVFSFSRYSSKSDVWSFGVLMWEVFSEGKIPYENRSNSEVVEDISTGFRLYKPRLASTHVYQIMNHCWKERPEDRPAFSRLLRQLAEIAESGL
T7 sequence (P27361 whole entry): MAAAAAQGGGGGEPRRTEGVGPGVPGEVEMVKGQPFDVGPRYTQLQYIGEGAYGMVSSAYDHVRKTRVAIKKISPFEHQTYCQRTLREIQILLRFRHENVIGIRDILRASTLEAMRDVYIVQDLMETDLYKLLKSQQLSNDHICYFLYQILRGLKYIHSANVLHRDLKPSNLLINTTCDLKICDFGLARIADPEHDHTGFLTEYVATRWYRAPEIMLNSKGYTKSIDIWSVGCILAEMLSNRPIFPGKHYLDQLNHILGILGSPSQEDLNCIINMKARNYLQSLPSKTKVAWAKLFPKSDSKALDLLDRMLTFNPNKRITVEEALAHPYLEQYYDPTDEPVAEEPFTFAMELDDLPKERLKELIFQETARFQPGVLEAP
T13 sequence (P0C264 whole entry): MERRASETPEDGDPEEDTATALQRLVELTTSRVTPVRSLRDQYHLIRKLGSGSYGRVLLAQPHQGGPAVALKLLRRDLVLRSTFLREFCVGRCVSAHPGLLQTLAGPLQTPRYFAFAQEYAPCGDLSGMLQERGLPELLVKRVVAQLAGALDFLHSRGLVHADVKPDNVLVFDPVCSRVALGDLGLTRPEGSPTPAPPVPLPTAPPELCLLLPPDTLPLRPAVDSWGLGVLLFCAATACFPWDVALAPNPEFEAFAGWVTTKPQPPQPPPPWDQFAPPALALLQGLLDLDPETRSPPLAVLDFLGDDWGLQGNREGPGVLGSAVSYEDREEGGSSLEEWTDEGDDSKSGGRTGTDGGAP

With `C#Cc1cccc(Nc2ncnc3cc(OC)c(OCCCN4CCOCC4)cc23)c1` [NRC-2694, N-(3-ethylnylphenyl)-7-methoxy-6-[3-(4-morpholinyl)propoxy]-4-quinazolinamine] the “% Ctrl @ 10000 nM” value (DRAK2) was 58 % Ctrl, the “% Ctrl @ 10000 nM” value (PDGFRB) was 10 % Ctrl and the “% Ctrl @ 10000 nM” value (CHEK2) was 38 % Ctrl. The “% Ctrl @ 10000 nM” value (LCK) was 1.5 % Ctrl, the “% Ctrl @ 10000 nM” value (YANK3) was 100 % Ctrl and the “% Ctrl @ 10000 nM” value (EPHA7) was 70 % Ctrl. For the same molecule, the “% Ctrl @ 10000 nM” value (ERK1) was 98 % Ctrl, the “% Ctrl @ 10000 nM” value (CAMK1D) was 83 % Ctrl and the “% Ctrl @ 10000 nM” value (BRAF) was 81 % Ctrl. For the same molecule, the “% Ctrl @ 10000 nM” value (TIE1) was 52 % Ctrl, the “% Ctrl @ 10000 nM” value (TTK) was 48 % Ctrl and the “% Ctrl @ 10000 nM” value (TRKB) was 73 % Ctrl. The “% Ctrl @ 10000 nM” value (SgK110) was 83 % Ctrl, the “% Ctrl @ 10000 nM” value (ITK) was 82 % Ctrl and the “% Ctrl @ 10000 nM” value (MYO3B) was 100 % Ctrl. The “% Ctrl @ 10000 nM” value (CSK) was 53 % Ctrl, the “% Ctrl @ 10000 nM” value [1] was 15 % Ctrl and the “% Ctrl @ 10000 nM” value (RET (V804L)) was 81 % Ctrl. The “% Ctrl @ 10000 nM” value [2] was 97 % Ctrl, the “% Ctrl @ 10000 nM” value (MAP4K2) was 48 % Ctrl and the “% Ctrl @ 10000 nM” value (TESK1) was 83 % Ctrl. For the same molecule, the “% Ctrl @ 10000 nM” value (SIK2) was 21 % Ctrl and the “% Ctrl @ 10000 nM” value (MAP3K3) was 5.9 % Ctrl.
